Test results as given in patent US20250263404A1, “AMINOPYRIDINES AS ACTIVATORS OF PI3 KINASE” (UCL Business Ltd, priority 2021, published 2025).

Columns and labels:
PI3Kα-WT MEFs = experiment: Cell cycle progression by EdU incorporation in MEFs; assay type: cell-based, mouse
Method: Click-IT EdU strategy was used according to manufacturer instructions (Sigma-Aldrich #BCK-FC488-50). Briefly, MEFs were seeded at 50,000 cells per well in 6-well plates in DMEM supplemented with 10% FBS and 1% P/S, and allowed to attach overnight. The next day, cells were serum-starved for 5 h prior to compound addition in fresh serum-free DMEM. At different time points, cells were pulsed for 3 h with 10 μM EdU, followed by collection by trypsinization and fixation with 3.7% FA in PBS for 15 min in the dark, washed in 3% BSA and permeabilized in 1× saponin-based permeabilization buffer for 20 min in the dark. EdU was then detected using the FAM-azide assay cocktail for 30 min in the dark. Cells were washed twice in 1× saponin-based permeabilization buffer followed by analysed with flow cytometer (Novocyte Advanteon flow cytometer, Agilent).

[1] = system: mutant PI3Kα (D603K, D603A, 603DCN_AAA605, D603A/F1016S, L1006R, F1016S, L1006R/F1016S); experiment: Activation of binding-pocket mutants of PI3Kα; assay type: biochemical; details: all mutants activatable by pY
Description: The inventors then performed mutagenesis in attempt to generate 1938-resistant mutants. Based on the crystal structure and SAR data, we made the following mutants: D603K, D603A, 603DCN_AAA605 triple mutant, D603A/F1016S double mutant, L1006R, F1016S, and the L1006R/F1016S double mutant.

rat sciatic nerve = experiment: Rat sciatic nerve crush injury model; assay type: in vivo; details: 21 days
Method: Stimulated by these observations, we next tested 1938 in the sciatic nerve crush model in the rat, an in vivo model of peripheral nerve injury and regeneration. […] Immediately after the nerve crush (FIG. 5e, i-ii), 1938 was delivered via a single intraneural injection into the proximal crush site (FIG. 5e, iii) and via a minipump implanted adjacent to the nerve (FIG. 5e, iv), loaded with 1938 solution, for continuous delivery for the duration of the experiment. Analyses were conducted 3 weeks after injury.
Adult female Sprague Dawley rats (230-280 g, n=10, Charles River, UK) were anaesthetised by isoflurane inhalation in an induction chamber (5% isoflurane in O2, 0.8 l/min). Anaesthesia was maintained with 1.5-2.5% isoflurane inhalation, and the left sciatic nerve exposed at mid-thigh level.
The nerve was crushed by application of constant pressure using fully closed sterile type 4 tweezers (TAAB) for 15 sec. This was repeated two more times at the same point, with 45° rotation between each crush. The injury site was marked with a 10/0 epineurial non-absorbant suture (Ethicon). Following injury, frozen aliquots of 1938 solution and vehicle were defrosted. A single 2 μl injection of 1938 solution (5 μM in sterile H2O) or vehicle (sterile dH2O) was administered proximal to the crush site with a 10 μl Hamilton syringe. An osmotic minipump (Alzet 1004, Charles River, UK) was also implanted between the muscle layers, adjacent to the nerve oriented with the outlet nearest to the crush site, loaded with 1938 solution (100 μM in sterile H2O) or vehicle (sterile H2O). Animals were randomly assigned to groups (n=5 per group) and one experimenter was kept blind to condition for conducting functional and histological analyses. […]
At the end-point of the experiment (21 days), rats were anaesthetised and the sciatic nerve exposed as described above. […] The MI was manufactured using a previously documented protocol (Lancashire, H. T. et al. J Neural Eng 13, 034001 (2016). Electrode impedance of the MNI was 27.1±19.8 kΩ at 1k Hz. Compound muscle action potential (CMAP) was obtained by sciatic nerve stimulation with square wave pulses of 100 μsec with intensity from 1-10 mA. Stimulus was increased in 0.2 mA steps until muscle response amplitude no longer increased. CMAP amplitude was measured from peak to peak and recorded in triplicate for both the ipsilateral and contralateral side. The CMAP with the largest amplitude was selected for analysis.
A modified multipoint stimulation technique was used to calculate Motor Unit Number Estimation (MUNE) (Shefner, J. M. et al. Muscle & nerve 34, 603-607 (2006); Jacobsen, A. B. et al. J Vis Exp (2018); Arnold, W. D. et al. J Vis Exp (2015)). […] The CMAP was divided by the mean magnitude of SMUPs to quantify MUNE. […]

With `CCN1CCN(c2ccc(Nc3cc(Nc4cccc5c4N(C(C)=O)CC5)ccn3)cc2)CC1` [Example 1938] the “cell cycle progression (EdU incorporation)” value (PI3Kα-WT MEFs) was “induced cell cycle progression”, the “activation of pocket mutants by 1938” value [1] was “resistant to activation by 1938” and the “neurofilament- and ChAT-positive axons, treatment versus control” value (rat sciatic nerve; 3 mm and 6 mm distal to the crush site) was “equivalent numbers”. For the same compound, the “number of ChAT-positive motor axons” value (rat sciatic nerve; distal common peroneal nerve) was “an increase”, the “compound muscle action potential (CMAP) recovery” value (rat sciatic nerve; tibialis anterior muscle) was “greater” and the “motor unit number estimation (MUNE)” value (rat sciatic nerve; tibialis anterior muscle) was “increased”.
